Results on eleven compounds are retold here after patent publication US7794835B2, “Fixing solution, capsule structure, fixing method, fixing device and image forming apparatus” (Ricoh Company, Ltd., priority 2004, dated 2010).

For series [1] the following is noted: acute oral toxicity, cited from earlier work.
A short description of series [2]: acute oral toxicity test LD50 (50 percent lethal dose). In kind it is in vivo, rats or guinea pigs. The following applies: worked out from LD50 in oral administration. The source says:
A fixing solution according to the present invention includes aliphatic ester, held in a soluble state with respect to a solvent and having solubility or a swelling property with respect to a resin included in a toner. Thereby, a fixing solution, from which generation of odor is reduced, and by which a not-yet-fixed toner can be rapidly fixed, can be obtained. The aliphatic ester is applied as a softener softening a toner by dissolving or swelling the resin included in the toner. ‘Held in a soluble state’ means as being held in a size on the order of a molecule size on the order of […]. The aliphatic ester preferably has acute oral toxicity test LD50 larger than 3 g/kg in a viewpoint of a safety of humans.
For the first problem, LD50 is applied as a safety index, and a fixing solution was produced in such a manner that each of a solvent and a solute has LD50 not less than 3.0 g/kg. LD50 is a toxicity index of American Industrial Hygiene Association, and means a 50 percent lethal dose. This corresponds to an amount such that, 50% of the number of individuals are dead when a certain amount of test solute or a sample to test is given to rats or guinea pigs. […] Since this means that a 50% lethal dose for a weight of individuals of 1 kg is not less than 15 g, a presumable lethal dose of silicone oil for a human of 65 kg is not less than […] accordingly. […]

Like-named read-outs stand apart in the source and are kept apart here.

Usually LD50 stands for the dose expected to kill half of the subjects tested. On to `CCOCCOC(=O)CCC(=O)OCCOCC` [diethoxy ethyl succinate], for which the LD50 in series [1] is 5000 mg/kg.

Regarding `CCO` [ethanol], in series [1], the LD50 is 20000 mg/kg.

Take `CCCCCCCCCCCC(=O)OCCCCCC` [hexyl laureate]: the LD50 in series [1] was 8000 mg/kg.

`CCCCCCCCCCCCCCCC(=O)OCC(C)C` [isobutyl palmitate, reference compound]: in series [1], the LD50 is 8000 mg/kg.

Turning to `CCCCCCCCCCCCCCCC(=O)OC(C)C` [isopropyl palmitate, reference compound], the LD50 in series [1] is 8000 mg/kg.

Take `CCCCCCCCCCCCCC(=O)OC(C)C` [isopropylmyristate]: in series [1], the LD50 was 8000 mg/kg.

On to `CCCCCCCC(=O)OC` [methylcaprylate, reference compound], for which the LD50 in series [1] was 3000 mg/kg.

As to `CCCCCCCCCCCC` [n-dodecane], the LD50 in series [1] was 20000 mg/kg.

For the compound `CCCCCC` [n-hexane], the LD50 in series [1] was 28700 mg/kg.

With `[Cl-].[Na+]` [salt, reference compound], the LD50 in series [1] was 3000 mg/kg.

With dimethylsiloxane, the LD50 entry in series [1] (listed as dimethyl silicone oil) is listed as “not less than 15 g/kg”. The “presumable lethal dose for a human of 65 kg” value in series [2] is reported as “not less than 945 g”.
